Literature values as cited in US8765470B2, “Reprogramming immortalized B-cells to induced pluripotent stem cells” (Cellular Dynamics International, Inc., priority 2010, dated 2014).

Experiments:
[1] = tested on: EBV replication; conditions: in vitro; Lin et al., 1983
[2] = tested on: EBV; conditions: Norseen et al., 2009
[3] = tested on: Epstein-Barr virus (EBV); conditions: anti-EBV activity; Kira et al., 2000; read-out: 50% effective concentration
[4] = Kira et al., 2000

Structure (SMILES) | inhibition of EBV replication [1] | effect on EBV proliferation [2] | further results
Nc1nc(=O)n([C@@H]2O[C@H](CO)[C@@H](O)[C@@H]2F)cc1I [1-(2-deoxy-2-fluoro-beta-D-arabinofuranosyl)-5-iodocytosine] | potent inhibitors | – | –
Cc1cn([C@@H]2O[C@H](CO)[C@@H](O)[C@@H]2F)c(=O)[nH]c1=O [1-(2-deoxy-2-fluoro-beta-D-arabinofuranosyl)-5-methyluracil] | potent inhibitors | – | –
CN(C)c1ccc(Nc2c3ccc(NC(=O)CCN4CCCC4)cc3nc3cc(NC(=O)CCN4CCCC4)ccc23)cc1 [BRACO-19] | – | block EBV proliferation | –
O=c1[nH]c(=O)n([C@H]2C[C@H](O)[C@@H](CO)O2)cc1/C=C/Br [E-5-(2-bromovinyl)-2′-deoxyuridine] | potent inhibitors | – | –
C[n+]1cccc(-c2c3nc(c(-c4ccc[n+](C)c4)c4ccc([nH]4)c(-c4ccc[n+](C)c4)c4nc(c(-c5ccc[n+](C)c5)c5ccc2[nH]5)C=C4)C=C3)c1 [TMPyP3] | – | block EBV proliferation | –
C[n+]1ccc(-c2c3nc(c(-c4cc[n+](C)cc4)c4ccc([nH]4)c(-c4cc[n+](C)cc4)c4ccc([nH]4)c(-c4cc[n+](C)cc4)c4nc2C=C4)C=C3)cc1 [TMPyP4] | – | block EBV proliferation | –
O=c1[nH]c(=O)n([C@@H]2CO[C@H](CO)O2)cc1I [beta-L-5-Iododioxolane uracil] | – | – | EC50 [3]: 30 nM; 50% cytotoxic concentration [4]: 1,000 microM
